The test system of experiment [1] is Hacl-1 in the hair follicles. The experiment in a line: Induction of Hacl-1 expression and anagen in hair follicles of mouse back skin after subcutaneous injection. To be noted: C57BL/6 mice in telogen, 0.8 mg/ml solution, 0.1 ml subcutaneously 5 times at intervals of 24 hours. It is filed as in vivo. As for the experimental part:
(§1) A C57BL mouse (14 weeks old) was shaved on the back with clippers to confirm that the mouse had both skin areas in anagen and telogen as to the hair cycle based on colors of the skin. Each 200 mg of the skin areas in anagen and telogen was collected from the mouse and homogenized on ice for 2 minutes, and then suspended in a buffer (PBS). The supernatant was collected and subjected to SDS-polyacrylamide gel electrophoresis (SDS-PAGE). The respective hair follicles in telogen and anagen were distinguished by observing the tissue section under a microscope, and the criterion shown in FIG. 1 was applied for judgment.
Promoting activity on hair growth of the aforementioned polypeptide H1 and oligopeptide ssb7 was evaluated. C57BL/6 mice are known to have sustained telogen for about 50 days from the 45-day after birth to around the 95-day, and the hair cycle of the animal is easily judged based on the skin color changes, i.e., from pink in telogen to gray or black in anagen. […] The polypeptide H1 solution (0.8 mg/ml) or the oligopeptide ssb7 solution (0.8 mg/ml) prepared above was subcutaneously injected 5 times in the amount of 0.1 ml at intervals of 24 hours, and Hacl-1 in the hair follicles was measured with time according to the method of Example 1.

In experiment [2] the test system is Hacl-1 in the cultures (mouse beard). The experiment in a line: Induction of Hacl-1 expression in cultured mouse beard. Conditions: 50 μg/ml, cultivation for 5 days; the control showed only slight expression. It counts as cell-based, mice. As for the experimental part: as §1
The beard on the both sides of the mice used in Example 2 was collected and cultured by the method described in Development, 105, pp. 271-277, 1989. The beard from one side was used as a control, and that from the other side was treated with the aforementioned oligopeptide ssb7 (50 μg/ml). After cultivation for 5 days, Hacl-1 in the cultures was determined according to the method of Example 1.

This note sets out measurements from patent US20020051760A1, “Method for screening a substance having promoting activity on hair growth” (SUMITOMO ELECTRIC INDUSTRIES, Ltd., priority 2000, published 2002).

Where no end group is shown, it is not given here.

Regarding “ssb7: S-S bridged oligopeptide obtained by crosslinking pep7 (Ser-Ile-Glu-Gln-Ser-Cys-Asp-Gln-Asp-Glu) with BMH (SIEQSCDQDE; not fully specified; printed as Ser-Ile-Glu-Gln-Ser-Cys-Asp-Gln-Asp-Glu; also: two chains crosslinked through Cys6 by BMH (bismaleimidohexane))”, the “induction of anagen of the hair follicles” value in experiment [1] (20-day, judged from Hacl-1 expression) is “induction of anagen”. In experiment [1] (samples at 20-day), the “Hacl-1 band in hair follicle samples (Western Blotting with antiserum against Hacl-1)” value is reported as “clear band of Hacl-1 was observed”. Moreover, in experiment [2], the “expression of Hacl-1 in cultured beard” value is reported as “expression of Hacl-1 was observed”.
